Experimental data published in patent publication US7485755B2, “Acid addition salt of carbasugar amine derivative” (Seikagaku Corporation, priority 2003, dated 2009).

Tests used:
[1] = target: T1, bovine sperm-derived β-D-galactosidase (Bos taurus, UniProt Q58D55); assay: Measurement of acidic β-galactosidase inhibitory activity (4-methylumbelliferyl substrate, fluorescence); type: biochemical; conditions: 0.2 M acetate buffer pH 4.4, 25° C., 30 minutes; read-out: 50% Inhibition concentration (IC50 value)
T1 construct: bovine sperm-derived β-D-galactosidase (manufactured by Signa); purchased Sigma; host or cells: bovine sperm (tissue-derived)
T1 sequence (Q58D55 28-653): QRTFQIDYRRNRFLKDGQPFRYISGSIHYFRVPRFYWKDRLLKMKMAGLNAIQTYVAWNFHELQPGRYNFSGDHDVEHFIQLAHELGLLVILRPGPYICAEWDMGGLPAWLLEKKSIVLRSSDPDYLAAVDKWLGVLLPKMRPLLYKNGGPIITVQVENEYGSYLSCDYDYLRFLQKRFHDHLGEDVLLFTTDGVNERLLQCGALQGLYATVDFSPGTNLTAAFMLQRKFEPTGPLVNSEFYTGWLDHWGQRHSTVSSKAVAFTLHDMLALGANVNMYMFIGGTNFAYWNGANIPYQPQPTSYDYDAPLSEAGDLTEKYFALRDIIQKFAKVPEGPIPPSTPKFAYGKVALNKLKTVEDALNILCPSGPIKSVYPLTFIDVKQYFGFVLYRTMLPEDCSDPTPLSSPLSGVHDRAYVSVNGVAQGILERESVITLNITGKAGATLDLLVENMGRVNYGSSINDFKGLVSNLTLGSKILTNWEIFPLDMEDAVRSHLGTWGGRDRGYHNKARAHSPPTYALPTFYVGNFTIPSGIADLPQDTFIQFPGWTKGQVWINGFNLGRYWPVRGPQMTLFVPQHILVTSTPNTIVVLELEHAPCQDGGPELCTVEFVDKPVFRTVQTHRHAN
Experimental: Each of Substances A-2 to 7 of the invention dissolved in water for injection, to which DMSO had been added and dissolved therein, if necessary, was diluted with a 0.2 M acetate buffer (pH 4.4) to give a concentration of 0.05, 0.125, 0.25, 0.5, 1.0, 2.5 or 5.0 μM and added at 25 μl into a 96 well microplate. Then, a 0.2 M acetate buffer (pH 4.4) solution of bovine sperm-derived β-D-galactosidase (manufactured by Signa) was added at 25 μl, and 4-methylumbelliferyl-β-D-galactopyranoside (10 μM) was further added as a fluorescence substrate at 50 μl, followed by incubation at 25° C. for 30 minutes. Then, the reaction was stopped by adding 100 μl of 2 M Na2CO3, and an amount of 4-methylumbelliferone released by the enzyme reaction (fluorescence intensity) was measured (excitation wavelength 355 nm, measuring wavelength 460 nm) by a fluorescence reader (product name; ARVOSX manufactured by WALLAC). An amount of the 4-methylumbelliferone released at the time of not adding the inhibitor was defined as 100%, and quantitative change in the 4-methylumbelliferone formed by addition of each substance to be evaluated was relatively evaluated. In addition, as the 50% inhibition concentration (IC50 value), the concentration of each substance of the invention which reduces 50% of the concentration of 4-methylumbelliferone at the time of un-adding each substance of the invention was calculated from an inhibition curve.

[2] = Solubility test in distilled water; type: physicochemical; conditions: thermodynamic from solid

Compound	IC50 [1] [µM]	solubility ([2]; 19° C., distilled water added to 5.4 mg of sample) [mg/mL]	solubility ([2]; distilled water, water, 24° C.) [mg/mL]
CCCCCCCCCCCCN[C@@H]1C=C(CO)[C@H](O)[C@H](O)[C@H]1O [Substance A-4]	1.43		
CCCCCCCCCCN[C@@H]1C=C(CO)[C@H](O)[C@H](O)[C@H]1O [Substance A-3]	0.301		
CCCCCCCCN[C@@H]1C=C(CO)[C@H](O)[C@H](O)[C@H]1O [Substance A-2]	0.476		≥ 300

The remaining lines, values ahead:

IC50 [1] [µM]	solubility ([2]; 19° C., distilled water added to 5.4 mg of sample) [mg/mL]	solubility ([2]; distilled water, water, 24° C.) [mg/mL]	Compound
1.79			CCCCCCCCCCCCCCCCCCN[C@@H]1C=C(CO)[C@H](O)[C@H](O)[C@H]1O [Substance A-6]
2.69			CCCCCCCCCCCCCCN[C@@H]1C=C(CO)[C@H](O)[C@H](O)[C@H]1O [Substance A-5]
	> 108		CCCCCCCCNC1C=C(CO)C(O)C(O)C1O (stereo not shown) [Substance B-2]
